According to US20230284660A1, “Siamenoside I Sweetened Compositions and Uses of the Same” (The Coca-Cola Company, priority 2017, published 2023):

Tests used:
Assay type in all cases: in vivo, human
[1] = Mock beverage tasting of sweeteners in citric acid buffer and phosphoric acid buffer; settings: for Dosage for ~7 Brix SE: estimated concentrations, benchmark 500 ppm mogroside V
Description: Siamenoside I was separately tasted in citric acid buffer (pH 3.2) and phosphoric acid buffer (pH 2.6) at 500 ppm and compared against an equivalent solution of RebM90 (RebM with at least 90% purity) and various other sweeteners.
Accordingly, the dosage of all other sweeteners was adjusted benchmark 500 ppm mogroside V. Estimated concentrations are presented below.

[2] = Blind bench evaluation of sweeteners in six beverage matrices, RebM90 as control; settings: Lemon Lime Sparkling (70% sugar reduction)
Method: A blind evaluation of the above-named sweeteners was conducted in six (6) beverage (liquid) matrices, including both sparkling and still matrixes. Of the six beverage matrices, four (4) were calorie reduction matrixes and two (2) were diet matrixes. RebM90 served as control. 7-10 internal team members blindly evaluated the samples.

[3] = Blind bench tasting of lemon-lime flavored carbonated beverages; settings: in blends with Reb-M
Method: The ingredients were dissolved in filtered water to constitute a syrup (6.5 times concentrated), then the final beverage was made by weighing the appropriate syrup amount and adding carbonated water using a ratio of 1 part syrup+5.5 parts carbonated water. Target carbonation volume in finished beverages was […] of CO2. For samples with high Reb-M content (#1 and #2) syrup water was heated to about 47° C. to allow Reb-M solubility, then cooled down to ambient temperature before adding the remaining ingredients. Final beverages were filled in 300 ml glass bottles then aged for 3 days at 35° C. before they were cooled and served cold (4° C.).
Four experienced panelists bench tasted the beverages blindly. Each panelist was given warm bottled water and unsalted crackers to eat and rinse the palate between samples. A maximum of 3 samples was tasted at each session to avoid fatigue.

SMILES | Dosage for ~7 Brix SE [1] | other results
C=C1C[C@@]23CC[C@H]4[C@@](C)(CCC[C@@]4(C)C(=O)O[C@@H]4O[C@H](CO)[C@@H](O)[C@H](O[C@@H]5O[C@H](CO)[C@@H](O)[C@H](O)[C@H]5O)[C@H]4O[C@@H]4O[C@@H](C)[C@H](O)[C@@H](O)[C@H]4O)[C@@H]2CC[C@]1(O[C@@H]1O[C@H](CO)[C@@H](O)[C@H](O[C@@H]2O[C@H](CO)[C@@H](O)[C@H](O)[C@H]2O)[C@H]1O[C@@H]1O[C@H](CO)[C@@H](O)[C@H](O)[C@H]1O)C3 [Rebaudioside N] | 360 ppm | 
C[C@H](CC[C@@H](O[C@@H]1O[C@H](CO[C@@H]2O[C@H](CO)[C@@H](O)[C@H](O)[C@H]2O)[C@@H](O)[C@H](O)[C@H]1O[C@@H]1O[C@H](CO)[C@@H](O)[C@H](O)[C@H]1O)C(C)(C)O)[C@H]1CC[C@@]2(C)[C@@H]3CC=C4[C@@H](CC[C@H](O[C@@H]5O[C@H](CO)[C@@H](O[C@@H]6O[C@H](CO)[C@@H](O)[C@H](O)[C@H]6O)[C@H](O)[C@H]5O)C4(C)C)[C@]3(C)[C@H](O)C[C@]12C [Isomogroside V] | 270 ppm | Comments: less sweet [2]: less sweet (−1.5 BE), mogroside
C[C@H](CC[C@@H](O[C@@H]1O[C@H](CO[C@@H]2O[C@H](CO)[C@@H](O)[C@H](O)[C@H]2O)[C@@H](O)[C@H](O)[C@H]1O[C@@H]1O[C@H](CO)[C@@H](O)[C@H](O)[C@H]1O)C(C)(C)O)[C@H]1CC[C@@]2(C)[C@@H]3CC=C4[C@@H](CC[C@H](O[C@@H]5O[C@H](CO)[C@@H](O)[C@H](O)[C@H]5O)C4(C)C)[C@]3(C)[C@H](O)C[C@]12C [Siamenoside I] | 350 ppm | maximum sweetness intensity [3]: 10 Brix equivalent
C[C@H](CC[C@@H](O[C@@H]1O[C@H](CO)[C@@H](O)[C@H](O)[C@H]1O[C@@H]1O[C@H](CO)[C@@H](O)[C@H](O)[C@H]1O)C(C)(C)O)[C@H]1CC[C@@]2(C)[C@@H]3CC=C4[C@@H](CC[C@H](O[C@@H]5O[C@H](CO)[C@@H](O)[C@H](O)[C@H]5O)C4(C)C)[C@]3(C)[C@H](O)C[C@]12C [Mogroside IIIe] | 350 ppm | 
C[C@H](CC[C@@H](O[C@@H]1O[C@H](CO)[C@@H](O)[C@H](O)[C@H]1O[C@@H]1O[C@H](CO)[C@@H](O)[C@H](O)[C@H]1O)C(C)(C)O)[C@H]1CC[C@@]2(C)[C@H]3CC=C4[C@@H](CC[C@H](O[C@@H]5O[C@H](CO[C@@H]6O[C@H](CO)[C@@H](O)[C@H](O)[C@H]6O)[C@@H](O)[C@H](O)[C@H]5O)C4(C)C)[C@]3(C)[C@H](O)C[C@]12C [Mogroside IV] | 435 ppm | 
C[C@H](CC[C@@H](O[C@@H]1O[C@H](CO[C@@H]2O[C@H](CO)[C@@H](O)[C@H](O)[C@H]2O)[C@@H](O)[C@H](O)[C@H]1O[C@@H]1O[C@H](CO)[C@@H](O)[C@H](O)[C@H]1O)C(C)(C)O)[C@H]1CC[C@@]2(C)[C@@H]3CC=C4[C@@H](CC[C@H](O[C@@H]5O[C@H](CO[C@@H]6O[C@H](CO)[C@@H](O)[C@H](O)[C@H]6O)[C@@H](O)[C@H](O)[C@H]5O)C4(C)C)[C@]3(C)[C@H](O)C[C@]12C [Mogroside V] | 500 ppm | Brix SE ([1]; 500 ppm): approximately 7 Brix SE; relative sweetness of solutions ([1]; 500 ppm, citric acid buffer pH 3.2 and phosphoric acid buffer pH 2.6): the least sweet
